Earlier results on two molecules are cited in patent US20260315441A1, “FORMULATIONS OF PENICILLIN AND METHODS FOR STABILIZING PENICILLIN” (VETERINARY PHARMACY CORPORATION, priority 2023, published 2026).

Where two headings read alike, the source gives them in different places.

As to `CC1(C)S[C@@H]2[C@H](NC(=O)Cc3ccccc3)C(=O)N2[C@H]1C(=O)O` [Penicillin], the “minimum degradation pH point” value (aqueous solution) is 6.5 pH. In addition, the “stability outside of the pH range of 5-8” value (pH outside 5-8) is “very unstable”.
For the molecule `CC1(C)S[C@@H]2[C@H](NC(=O)Cc3ccccc3)C(=O)N2[C@H]1C(=O)O` [Penicillin G, benzylpenicillin], the “pH of highest stability” value (aqueous solution) was 5-8 pH. The “degradation of penicillin G” value (at 5° C.) is recorded as 1.92 %/hour and the “degradation of penicillin G” value (at 37° C.) was 3.29 %/hour.
